Values belong to the compound of their own block, whether it stands above or below them.
Legend:
[1] = molecular target: Serine/threonine-protein kinase B-raf (Homo sapiens) (UniProt P15056); assay: Inhibition of human recombinant BRAF at 500 nM related to control ULK1
[2] = molecular target: Serine/threonine-protein kinase MAK (Homo sapiens) (UniProt P20794); assay: Inhibition of human recombinant MAK at 500 nM related to control ULK1
[3] = molecular target: Mitogen-activated protein kinase 11 (Homo sapiens) (UniProt Q15759); assay: Inhibition of human recombinant p38beta at 40 nM in presence of ATP by radiometric assay relative to control
[4] = molecular target: T1, NUAK family SNF1-like kinase 1 (Homo sapiens) (UniProt O60285); assay: Inhibition of human recombinant NuaK1 at 40 nM related to control ULK1
T1 sequence (whole entry): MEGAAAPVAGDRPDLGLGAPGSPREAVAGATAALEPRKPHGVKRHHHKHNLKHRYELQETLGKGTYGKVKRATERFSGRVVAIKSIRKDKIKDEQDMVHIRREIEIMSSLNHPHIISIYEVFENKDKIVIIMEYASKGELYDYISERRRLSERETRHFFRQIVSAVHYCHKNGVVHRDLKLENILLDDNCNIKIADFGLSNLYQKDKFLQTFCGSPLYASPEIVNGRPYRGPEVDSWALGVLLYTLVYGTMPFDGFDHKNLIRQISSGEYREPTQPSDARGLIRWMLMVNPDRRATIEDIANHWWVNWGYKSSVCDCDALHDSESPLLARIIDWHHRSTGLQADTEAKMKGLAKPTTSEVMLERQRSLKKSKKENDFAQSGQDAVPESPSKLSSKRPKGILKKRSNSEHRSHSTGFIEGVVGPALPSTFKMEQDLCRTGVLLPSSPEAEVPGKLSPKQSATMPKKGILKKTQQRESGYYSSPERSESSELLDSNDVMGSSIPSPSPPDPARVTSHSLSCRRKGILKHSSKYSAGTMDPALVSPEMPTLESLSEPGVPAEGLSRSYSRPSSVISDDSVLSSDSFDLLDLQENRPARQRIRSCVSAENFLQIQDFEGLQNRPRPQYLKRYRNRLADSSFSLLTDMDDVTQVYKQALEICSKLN

[5] = molecular target: T2, Serine/threonine-protein kinase Nek11 (Homo sapiens) (UniProt Q8NG66); assay: Inhibition of human recombinant NEK11 at 15 nM in presence of ATP by radiometric assay relative to control
T2 sequence (whole entry): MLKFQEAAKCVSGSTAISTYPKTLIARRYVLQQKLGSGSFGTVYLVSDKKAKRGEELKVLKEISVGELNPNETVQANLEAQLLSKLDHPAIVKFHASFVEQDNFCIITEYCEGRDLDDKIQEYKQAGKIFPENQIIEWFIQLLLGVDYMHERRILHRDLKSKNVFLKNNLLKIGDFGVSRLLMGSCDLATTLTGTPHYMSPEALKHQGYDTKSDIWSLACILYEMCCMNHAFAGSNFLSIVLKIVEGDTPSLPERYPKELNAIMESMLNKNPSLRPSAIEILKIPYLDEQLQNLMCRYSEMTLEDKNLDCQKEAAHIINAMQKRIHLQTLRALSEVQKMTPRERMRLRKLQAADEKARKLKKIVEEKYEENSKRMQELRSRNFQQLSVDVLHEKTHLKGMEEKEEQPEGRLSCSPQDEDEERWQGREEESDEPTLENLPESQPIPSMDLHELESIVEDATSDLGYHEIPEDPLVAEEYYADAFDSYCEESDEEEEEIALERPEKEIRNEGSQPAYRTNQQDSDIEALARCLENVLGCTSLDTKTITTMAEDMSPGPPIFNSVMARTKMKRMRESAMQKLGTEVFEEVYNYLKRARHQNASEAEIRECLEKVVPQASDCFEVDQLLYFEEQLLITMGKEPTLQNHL

[6] = molecular target: Hepatocyte growth factor receptor MET (Homo sapiens) (UniProt P08581); assay: Inhibition of human recombinant MET at 15 nM in presence of ATP by radiometric assay relative to control
[7] = molecular target: T3, Cytoplasmic tyrosine-protein kinase BMX (Homo sapiens) (UniProt P51813); assay: Inhibition of human recombinant BMX at 15 nM related to control ULK1
T3 sequence (whole entry): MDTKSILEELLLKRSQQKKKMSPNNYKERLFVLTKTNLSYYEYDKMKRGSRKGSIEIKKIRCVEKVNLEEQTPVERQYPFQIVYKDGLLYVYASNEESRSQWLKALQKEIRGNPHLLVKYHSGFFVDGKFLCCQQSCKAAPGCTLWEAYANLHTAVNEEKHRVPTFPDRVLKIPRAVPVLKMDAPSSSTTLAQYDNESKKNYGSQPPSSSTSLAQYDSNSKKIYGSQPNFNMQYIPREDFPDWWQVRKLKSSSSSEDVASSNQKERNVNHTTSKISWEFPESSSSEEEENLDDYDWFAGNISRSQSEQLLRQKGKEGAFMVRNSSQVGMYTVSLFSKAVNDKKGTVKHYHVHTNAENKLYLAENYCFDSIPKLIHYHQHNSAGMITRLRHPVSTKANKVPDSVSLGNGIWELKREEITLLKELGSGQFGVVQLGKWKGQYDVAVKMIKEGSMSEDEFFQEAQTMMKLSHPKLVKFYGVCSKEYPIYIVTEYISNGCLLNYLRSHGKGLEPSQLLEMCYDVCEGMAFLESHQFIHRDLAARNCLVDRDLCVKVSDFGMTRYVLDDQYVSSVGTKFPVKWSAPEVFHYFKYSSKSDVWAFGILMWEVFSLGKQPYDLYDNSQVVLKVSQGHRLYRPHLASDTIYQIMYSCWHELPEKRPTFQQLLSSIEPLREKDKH

Hepatocyte growth factor receptor MET (Homo sapiens), sequence (P08581 whole entry, looked up): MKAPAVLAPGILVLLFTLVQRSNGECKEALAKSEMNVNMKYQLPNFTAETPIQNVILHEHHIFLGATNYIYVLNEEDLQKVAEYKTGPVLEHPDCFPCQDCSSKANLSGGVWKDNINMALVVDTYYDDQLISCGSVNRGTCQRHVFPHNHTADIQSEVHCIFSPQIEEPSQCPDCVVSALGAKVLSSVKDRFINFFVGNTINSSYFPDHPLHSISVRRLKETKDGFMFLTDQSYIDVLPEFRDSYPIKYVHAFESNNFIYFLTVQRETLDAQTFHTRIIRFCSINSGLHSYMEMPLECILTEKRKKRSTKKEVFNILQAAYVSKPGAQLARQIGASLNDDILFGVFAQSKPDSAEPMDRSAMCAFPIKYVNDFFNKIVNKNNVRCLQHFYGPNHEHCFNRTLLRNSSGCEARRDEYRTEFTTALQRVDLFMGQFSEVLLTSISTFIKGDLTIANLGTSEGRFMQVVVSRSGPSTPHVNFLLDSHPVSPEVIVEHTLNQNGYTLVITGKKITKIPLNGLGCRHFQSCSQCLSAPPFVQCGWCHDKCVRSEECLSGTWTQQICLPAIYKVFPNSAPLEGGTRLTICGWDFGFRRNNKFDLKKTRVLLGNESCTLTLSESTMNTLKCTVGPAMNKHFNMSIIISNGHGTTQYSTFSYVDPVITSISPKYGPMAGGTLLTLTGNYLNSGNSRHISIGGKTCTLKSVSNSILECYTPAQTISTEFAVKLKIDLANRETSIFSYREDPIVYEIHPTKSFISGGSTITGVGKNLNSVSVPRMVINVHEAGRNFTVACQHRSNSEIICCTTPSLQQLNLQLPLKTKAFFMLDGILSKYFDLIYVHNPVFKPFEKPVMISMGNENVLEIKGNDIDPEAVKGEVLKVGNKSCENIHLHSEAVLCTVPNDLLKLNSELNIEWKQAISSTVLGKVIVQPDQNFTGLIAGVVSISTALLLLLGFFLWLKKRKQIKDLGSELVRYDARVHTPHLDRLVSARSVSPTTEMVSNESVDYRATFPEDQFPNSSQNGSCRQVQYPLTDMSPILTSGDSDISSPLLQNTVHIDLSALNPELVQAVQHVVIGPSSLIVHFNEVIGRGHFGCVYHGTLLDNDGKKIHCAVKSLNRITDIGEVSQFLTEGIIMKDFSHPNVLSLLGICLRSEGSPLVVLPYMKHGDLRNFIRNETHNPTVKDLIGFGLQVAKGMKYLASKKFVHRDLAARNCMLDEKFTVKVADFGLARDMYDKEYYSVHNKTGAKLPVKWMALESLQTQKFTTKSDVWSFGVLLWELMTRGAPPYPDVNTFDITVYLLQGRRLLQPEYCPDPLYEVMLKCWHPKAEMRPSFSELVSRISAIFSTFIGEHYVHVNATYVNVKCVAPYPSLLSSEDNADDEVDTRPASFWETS
Mitogen-activated protein kinase 11 (Homo sapiens), sequence (Q15759 whole entry): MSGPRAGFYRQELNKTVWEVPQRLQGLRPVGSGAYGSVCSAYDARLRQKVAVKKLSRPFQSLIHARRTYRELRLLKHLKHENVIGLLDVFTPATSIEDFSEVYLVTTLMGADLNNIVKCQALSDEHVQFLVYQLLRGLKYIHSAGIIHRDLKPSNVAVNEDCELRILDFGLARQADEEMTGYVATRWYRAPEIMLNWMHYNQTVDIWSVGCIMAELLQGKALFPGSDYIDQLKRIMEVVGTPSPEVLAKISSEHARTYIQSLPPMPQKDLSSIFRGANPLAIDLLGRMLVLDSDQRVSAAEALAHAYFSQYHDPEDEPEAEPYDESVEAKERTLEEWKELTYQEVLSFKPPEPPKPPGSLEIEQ
Serine/threonine-protein kinase B-raf (Homo sapiens), sequence (P15056 whole entry): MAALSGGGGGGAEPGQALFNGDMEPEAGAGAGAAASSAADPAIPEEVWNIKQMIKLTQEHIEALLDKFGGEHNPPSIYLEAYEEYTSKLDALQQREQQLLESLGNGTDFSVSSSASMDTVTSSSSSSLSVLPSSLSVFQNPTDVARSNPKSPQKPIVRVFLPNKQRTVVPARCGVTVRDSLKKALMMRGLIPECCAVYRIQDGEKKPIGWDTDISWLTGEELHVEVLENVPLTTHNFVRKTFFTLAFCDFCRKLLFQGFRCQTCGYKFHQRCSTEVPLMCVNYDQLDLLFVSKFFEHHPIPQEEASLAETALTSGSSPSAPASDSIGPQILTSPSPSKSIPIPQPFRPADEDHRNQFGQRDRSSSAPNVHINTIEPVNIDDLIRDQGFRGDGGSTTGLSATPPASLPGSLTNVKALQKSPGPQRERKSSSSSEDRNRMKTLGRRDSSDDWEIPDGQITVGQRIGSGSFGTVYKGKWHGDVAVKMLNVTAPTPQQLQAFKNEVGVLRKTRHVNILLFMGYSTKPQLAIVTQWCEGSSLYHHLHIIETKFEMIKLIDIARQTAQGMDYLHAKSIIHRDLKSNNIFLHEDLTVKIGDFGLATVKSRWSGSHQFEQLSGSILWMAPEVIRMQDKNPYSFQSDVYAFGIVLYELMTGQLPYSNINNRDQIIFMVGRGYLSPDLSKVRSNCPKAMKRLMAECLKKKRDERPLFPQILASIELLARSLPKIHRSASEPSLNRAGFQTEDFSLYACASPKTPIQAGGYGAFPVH
Serine/threonine-protein kinase MAK (Homo sapiens), sequence (P20794 whole entry, looked up): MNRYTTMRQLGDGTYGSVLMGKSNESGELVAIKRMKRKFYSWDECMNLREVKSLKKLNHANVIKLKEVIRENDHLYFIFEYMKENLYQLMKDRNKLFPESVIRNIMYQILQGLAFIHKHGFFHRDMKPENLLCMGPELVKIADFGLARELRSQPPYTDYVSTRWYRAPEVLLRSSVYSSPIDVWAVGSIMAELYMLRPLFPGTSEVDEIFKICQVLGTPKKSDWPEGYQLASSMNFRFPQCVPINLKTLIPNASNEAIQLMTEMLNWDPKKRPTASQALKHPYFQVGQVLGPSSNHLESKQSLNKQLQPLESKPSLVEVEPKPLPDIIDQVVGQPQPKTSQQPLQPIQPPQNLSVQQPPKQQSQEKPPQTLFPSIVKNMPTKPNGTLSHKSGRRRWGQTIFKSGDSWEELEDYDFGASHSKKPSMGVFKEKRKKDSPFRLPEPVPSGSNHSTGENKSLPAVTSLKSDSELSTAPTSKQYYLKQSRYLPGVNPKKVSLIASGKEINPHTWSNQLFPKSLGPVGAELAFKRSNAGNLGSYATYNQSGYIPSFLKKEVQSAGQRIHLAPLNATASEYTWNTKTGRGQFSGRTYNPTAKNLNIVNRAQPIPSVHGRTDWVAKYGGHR

fold change (FC) [1]: 0.11
fold change (FC) [2]: 0.49
SMILES: CNC(=O)c1ccccc1Oc1nc(Nc2cc(OC)c(OC)c(OC)c2)ncc1Br

inhibition [3]: 10%
fold change (FC) [4]: 0.07
SMILES: O=C(N[C@@H](C1CC1)C(F)(F)F)c1cc(-c2cnn3cc(-c4ccc(F)cc4)cnc23)cs1

inhibition [5]: 0%
inhibition [6]: 0%
fold change (FC) [7]: 0.07
SMILES: CC(C)[C@H](NC(=O)c1cc(-c2cnn3cc(-c4ccc(OCCN5CCCCC5)cc4)cnc23)cs1)C(F)(F)F
